Patent publication US12503475B2 (Centessa Pharmaceuticals (UK) Limited, priority 2020, dated 2025)

Biological target: T1, human orexin type 2 receptor (hOX2R) (Homo sapiens, UniProt O43614)
T1 construct: expressed in transfected cells
T1 sequence (O43614 1-444): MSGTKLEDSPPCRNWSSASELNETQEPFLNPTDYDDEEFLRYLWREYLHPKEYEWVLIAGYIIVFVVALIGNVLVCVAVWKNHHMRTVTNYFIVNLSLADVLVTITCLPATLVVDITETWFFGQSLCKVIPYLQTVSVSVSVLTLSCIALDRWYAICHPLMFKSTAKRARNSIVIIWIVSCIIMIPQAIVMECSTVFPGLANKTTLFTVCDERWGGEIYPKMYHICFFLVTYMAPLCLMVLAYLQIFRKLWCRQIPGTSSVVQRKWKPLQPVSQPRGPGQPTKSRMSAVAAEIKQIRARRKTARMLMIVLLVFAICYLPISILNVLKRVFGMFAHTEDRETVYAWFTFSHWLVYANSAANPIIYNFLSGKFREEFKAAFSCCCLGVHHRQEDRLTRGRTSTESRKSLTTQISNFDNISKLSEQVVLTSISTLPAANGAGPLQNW
Assay: Measurement of orexin type 2 receptor agonist activity (FLIPR calcium fluorescence)
Type: cell-based
Settings: CHO cells expressing hOX2R, FLIPR calcium fluorescence; for EC50: read-out: hOx2 pEC50 (converted); for Emax: CHO, read-out: hOx2 Emax (%)
Protocol: The biological activity of the compounds of the present disclosure may be determined in cells stably expressing either orexin type 2 or orexin type 1 receptor. […] The agonist activity of a compound of the present disclosure may be determined by fluorescence value.
Stable cell line generation.
Measurement of orexin type 2 receptor agonist activity. […] As used herein, E. indicates the value at 10 μM concentration when orexin A is converted to a full agonist (maximum value of agonist activity. 100%).

Row | EC50 [nM] | Emax [%] | Compound
1 | 1 to 10 | 90 to 100 | CCS(=O)(=O)NC1C(Cc2cccc(-c3ccccc3)c2)N(C(=O)N2CCC2)CC12CC2 (racemic) [Compound 3]
2 | 100 to 1000 | 60 to 70 | CS(=O)(=O)NC1C(Cc2cccc(-c3ccccc3)c2)N(C(=O)C(F)(F)F)CC12CC2 (racemic) [Compound 4, N-(6-([1,1′-biphenyl]-3-ylmethyl)-5-(2,2,2-trifluoroacetyl)-5-azaspiro[2.4]heptan-7-yl)methanesulfonamide]
3 | 100 to 1000 | 90 to 100 | CS(=O)(=O)NC1C(Cc2cccc(-c3ccccc3)c2)N(C(=O)C(F)F)CC12CC2 (racemic) [Compound 5, N-(6-([1,1′-biphenyl]-3-ylmethyl)-5-(2,2-difluoroacetyl)-5-azaspiro[2.4]heptan-7-yl)methanesulfonamide]
4 | 100 to 1000 | 70 to 80 | CCS(=O)(=O)NC1C(Cc2cccc(-c3ccccc3)c2)N(C(=O)OC)CC12CC2 (racemic) [Compound 6, methyl 6-([1,1′-biphenyl]-3-ylmethyl)-7-(ethylsulfonamido)-5-azaspiro[2.4]heptane-5-carboxylate]
5 | 1 to 10 | 90 to 100 | CCS(=O)(=O)NC1C(Cc2cccc(-c3ccccc3)c2)N(C(=O)C(C)C)CC12CC2 (racemic) [Compound 7, N-(6-([1,1-biphenyl]-3-ylmethyl)-5-isobutyryl-5-azaspiro[2.4]heptan-7-yl)ethanesulfonamide]
6 | 1 to 10 | 90 to 100 | CC(C)C(=O)N1CC2(CC2)C(NS(C)(=O)=O)C1Cc1cccc(-c2cccc(F)c2)c1 (racemic) [Compound 8, N-(6-((3′-fluoro-[1,1′-biphenyl]-3-yl)methyl)-5-isobutyryl-5-azaspiro[2.4]heptan-7-yl)methanesulfonamide]
7 | 100 to 1000 | 40 to 50 | CC(F)(F)C(=O)N1CC2(CC2)C(NS(C)(=O)=O)C1Cc1cccc(-c2ccccc2)c1 (racemic) [Compound 9, N-(6-([1,1′-biphenyl]-3-ylmethyl)-5-(2,2-difluoropropanoyl)-5-azaspiro[2.4]heptan-7-yl)methanesulfonamide]
8 | 100 to 1000 | 90 to 100 | CS(=O)(=O)NC1C(Cc2cccc(-c3ccccc3)c2)N(C(=O)N2CC(F)(F)C2)CC12CC2 (racemic) [Compound 10, N-(6-([1,1′-biphenyl]-3-ylmethyl)-5-(3,3-difluoroazetidine-1-carbonyl)-5-azaspiro[2.4]heptan-7-yl)methanesulfonamide]
9 | 10 to 100 | 90 to 100 | CS(=O)(=O)NC1C(Cc2cccc(-c3ccccc3)c2)N(C(=O)N2CC(F)C2)CC12CC2 (racemic) [Compound 11, N-(6-([1,1′-biphenyl]-3-ylmethyl)-5-(3-fluoroazetidine-1-carbonyl)-5-azaspiro[2.4]heptan-7-yl)methanesulfonamide]
10 | 100 to 1000 | 80 to 90 | CS(=O)(=O)NC1C(Cc2cccc(-c3ccccc3)c2)N(C(=O)C2CC(F)(F)C2)CC12CC2 (racemic) [Compound 12, N-(6-([1,1-biphenyl]-3-ylmethyl)-5-(3,3-difluorocyclobutane-1-carbonyl)-5-azaspiro[2.4]heptan-7-yl)methanesulfonamide]
11 | 100 to 1000 | 80 to 90 | CC(C)(F)C(=O)N1CC2(CC2)C(NS(C)(=O)=O)C1Cc1cccc(-c2ccccc2)c1 (racemic) [Compound 13, N-(6-([1,1′-biphenyl]-3-ylmethyl)-5-(2-fluoro-2-methylpropanoyl)-5-azaspiro[2.4]heptan-7-yl)methanesulfonamide]
12 | > 1000 | 90 to 100 | COC(=O)N1CCC2(CC2)C(NS(C)(=O)=O)C1Cc1cccc(-c2ccccc2)c1 (racemic) [Compound 14, methyl 5-([1,1′-biphenyl]-3-ylmethyl)-4-(methylsulfonamido)-6-azaspiro[2.5]octane-6-carboxylate]
13 | 10 to 100 | 90 to 100 | CC(C)C(=O)N1CC2(CC2)C(NS(C)(=O)=O)C1Cc1cccc(-c2ccccc2)c1 (racemic) [Compound 15, N-(6-([1,1′-biphenyl]-3-ylmethyl)-5-isobutyryl-5-azaspiro[2.4]heptan-7-yl)methanesulfonamide]
14 | 1 to 10 | 90 to 100 | CS(=O)(=O)NC1C(Cc2cccc(-c3ccccc3)c2F)N(C(=O)N2CCC2)CC12CC2 (racemic) [Compound 18, N-(5-(azetidine-1-carbonyl)-6-((2-fluoro-[1,1′-biphenyl]-3-yl)methyl)-5-azaspiro[2.4]heptan-7-yl)methanesulfonamide]
15 | 10 to 100 | 90 to 100 | CC(C)(C)C(=O)N1CC2(CC2)C(NS(C)(=O)=O)C1Cc1cccc(-c2cccc(F)c2)c1F (racemic) [Compound 23]
16 | 10 to 100 | 80 to 90 | CC(F)(F)C(=O)N1CC2(CC2)C(NS(C)(=O)=O)C1Cc1cccc(-c2cccc(F)c2)c1F (racemic) [Compound 24, N-(6-((2,3′-difluoro-[1,1′-biphenyl]-3-yl)methyl)-5-(2,2-difluoropropanoyl)-5-azaspiro[2.4]heptan-7-yl)methanesulfonamide]
17 | 10 to 100 | 90 to 100 | CC(C)(O)C(=O)N1CC2(CC2)C(NS(C)(=O)=O)C1Cc1cccc(-c2cc(F)cc(F)c2)c1F (racemic) [Compound 28, N-(5-(2-hydroxy-2-methylpropanoyl)-6-((2,3′,5′-trifluoro-[1,1′-biphenyl]-3-yl)methyl)-5-azaspiro[2.4]heptan-7-yl)methanesulfonamide]
18 | 0.0794 to 1 | 90 to 100 | CS(=O)(=O)NC1C(Cc2cccc(-c3cc(F)cc(F)c3)c2F)N(C(=O)C2CCC2)CC12CC2 (racemic) [Compound 29, N-(5-(cyclobutanecarbonyl)-6-((2,3′,5′-trifluoro-[1,1′-biphenyl]-3-yl)methyl)-5-azaspiro[2.4]heptan-7-yl)methanesulfonamide]
19 | 0.0794 to 1 | 90 to 100 | CS(=O)(=O)NC1C(Cc2cccc(-c3cc(F)cc(F)c3)c2F)N(C(=O)N2CCC2)CC12CC2 (racemic) [Compound 30, N-(5-(azetidine-1-carbonyl)-6-((2,3′,5′-trifluoro-[1,1′-biphenyl]-3-yl)methyl)-5-azaspiro[2.4]heptan-7-yl)methanesulfonamide]
20 | 1 to 10 | 90 to 100 | CC(C)C(=O)N1CC2(CC2)C(NS(=O)(=O)CF)C1Cc1cccc(-c2ccccc2)c1 (racemic) [Compound 36, N-(6-([1,1′-biphenyl]-3-ylmethyl)-5-isobutyryl-5-azaspiro[2.4]heptan-7-yl)-1-fluoromethanesulfonamide]
21 | 10 to 100 | 90 to 100 | CC[C@@H](O)C(=O)N1CC2(CC2)C(NS(C)(=O)=O)C1Cc1cccc(-c2ccccc2)c1 (mixture of isomers) [Compound 37, N-(6-([1,1′-biphenyl]-3-ylmethyl)-5-((R)-2-hydroxybutanoyl)-5-azaspiro[2.4]heptan-7-yl)methanesulfonamide]
22 | 1 to 10 | 90 to 100 | CCNC(=O)N1CC2(CC2)C(NS(C)(=O)=O)C1Cc1cccc(-c2ccccc2)c1F (racemic) [Compound 38, N-ethyl-6-((2-fluoro-[1,1′-biphenyl]-3-yl)methyl)-7-(methylsulfonamido)-5-azaspiro[2.4]heptane-5-carboxamide]
